Assay results: ChEMBL document CHEMBL4002584, “Synthesis and antibacterial activities of novel pleuromutilin derivatives with a substituted pyrimidine moiety” (2017)
Converted amounts (≈) assume the structure as drawn.

What was measured:
Type in all cases: functional
Escherichia coli [1] = assay: Antibacterial activity against Escherichia coli CMCC (B) 44102 at 160 ug/ml after 24 to 36 hrs by oxford cup assay; conditions: read-out: DIZ
Bacillus subtilis [2] = assay: Antibacterial activity against Bacillus subtilis CMCC (B) 63501 at 320 ug/ml after 24 to 36 hrs by oxford cup assay; conditions: read-out: DIZ
Staphylococcus aureus [3] = assay: Antibacterial activity against […] Staphylococcus aureus ATCC 29213 in iv dosed Balb/c mouse systemic infection model assessed as increase in mouse survival after 7 days
Staphylococcus aureus [4] = assay: Bactericidal activity against Staphylococcus aureus CMCC (B) 26003 assessed as bacterial level at MIC after 1 to 24 hrs by time-kill assay
Escherichia coli [5] = assay: Antibacterial activity against Escherichia coli CMCC (B) 44102 at 320 ug/ml after 24 to 36 hrs by oxford cup assay; conditions: read-out: DIZ
Staphylococcus aureus [6] = assay: Bactericidal activity against […] Staphylococcus aureus ATCC 29213 after 1 to 24 hrs by time-kill assay
Bacillus subtilis [7] = assay: Antibacterial activity against Bacillus subtilis CMCC (B) 63501 after 24 to 48 hrs by agar dilution method
Staphylococcus aureus [8] = assay: Antibacterial activity against […] Staphylococcus aureus ATCC 33591 at 160 ug/ml after 24 to 36 hrs by oxford cup assay; conditions: read-out: DIZ
Staphylococcus aureus [9] = assay: Antibacterial activity against Staphylococcus aureus CMCC (B) 26003 at 160 ug/ml after 24 to 36 hrs by oxford cup assay; conditions: read-out: DIZ
Staphylococcus aureus [10] = assay: Antibacterial activity against […] Staphylococcus aureus ATCC 29213 at 320 ug/ml after 24 to 36 hrs by oxford cup assay; conditions: read-out: DIZ
Staphylococcus aureus [11] = assay: Bactericidal activity against Staphylococcus aureus CMCC (B) 26003 after 1 to 24 hrs by time-kill assay
Staphylococcus aureus [12] = assay: Antibacterial activity against […] Staphylococcus aureus ATCC 33591 after 24 to 48 hrs by agar dilution method
Staphylococcus aureus [13] = assay: Antibacterial activity against Staphylococcus aureus CMCC (B) 26003 after 24 to 48 hrs by agar dilution method
Escherichia coli [14] = assay: Antibacterial activity against Escherichia coli CMCC (B) 44102 after 24 to 48 hrs by agar dilution method
Staphylococcus aureus [15] = assay: Antibacterial activity against […] Staphylococcus aureus ATCC 29213 after 24 to 48 hrs by agar dilution method
Staphylococcus aureus [16] = assay: Antibacterial activity against […] Staphylococcus aureus ATCC 29213 at 160 ug/ml after 24 to 36 hrs by oxford cup assay; conditions: read-out: DIZ
Bacillus subtilis [17] = assay: Antibacterial activity against Bacillus subtilis CMCC (B) 63501 at 160 ug/ml after 24 to 36 hrs by oxford cup assay; conditions: read-out: DIZ
Staphylococcus aureus [18] = assay: Antibacterial activity against Staphylococcus aureus CMCC (B) 26003 at 320 ug/ml after 24 to 36 hrs by oxford cup assay; conditions: read-out: DIZ
Staphylococcus aureus [19] = assay: Bactericidal activity against Staphylococcus aureus CMCC (B) 26003 at 6 times MIC after 4 hrs by time-kill assay relative to control
Staphylococcus aureus [20] = assay: Ratio of MIC for […] Staphylococcus aureus ATCC 29213 to MIC for Staphylococcus aureus CMCC (B) 26003
Staphylococcus aureus [21] = assay: Antibacterial activity against […] Staphylococcus aureus ATCC 33591 at 320 ug/ml after 24 to 36 hrs by oxford cup assay; conditions: read-out: DIZ

C=C[C@]1(C)C[C@@H](OC(=O)CSc2nc(N)cc(N)n2)[C@]2(C)[C@H](C)CC[C@]3(CCC(=O)[C@H]32)[C@@H](C)[C@@H]1O
zone of inhibition at 160 µg/mL (Escherichia coli [1]): 11.4 mm | zone of inhibition at 320 µg/mL (Bacillus subtilis [2]): 21.9 mm | Activity (Staphylococcus aureus [3]): Dose-dependent effect | ED50 (Staphylococcus aureus [3]; ATCC 29213, iv, 168 h): 4.22 mg/kg | Activity (Staphylococcus aureus [4]): 3 - 4 log10CFU/ml | zone of inhibition at 320 µg/mL (Escherichia coli [5]): 14.2 mm | Activity (Staphylococcus aureus [6]): Dose-dependent effect | MIC (Bacillus subtilis [7]): 2 µg/mL (≈ 3.98 µM) | zone of inhibition at 160 µg/mL (Staphylococcus aureus [8]): 24.2 mm | zone of inhibition at 160 µg/mL (Staphylococcus aureus [9]): 25.8 mm | zone of inhibition at 320 µg/mL (Staphylococcus aureus [10]): 33.5 mm | Activity (Staphylococcus aureus [11]): Dose-dependent effect | MIC (Staphylococcus aureus [12]): 0.0625 µg/mL (≈ 0.124 µM) | MIC (Staphylococcus aureus [13]): 0.0625 µg/mL (≈ 0.124 µM) | MIC (Escherichia coli [14]): 2 µg/mL (≈ 3.98 µM) | MIC (Staphylococcus aureus [15]): 0.125 µg/mL (≈ 0.249 µM) | zone of inhibition at 160 µg/mL (Staphylococcus aureus [16]): 24.7 mm | zone of inhibition at 160 µg/mL (Bacillus subtilis [17]): 17.4 mm | zone of inhibition at 320 µg/mL (Staphylococcus aureus [18]): 38.3 mm | fold change (FC) (Staphylococcus aureus [19]): >6 | Ratio (Staphylococcus aureus [20]): 2 | zone of inhibition at 320 µg/mL (Staphylococcus aureus [21]): 35.8 mm

C=C[C@]1(C)C[C@@H](OC(=O)CSc2nc(N)cc(NC(=O)CN(CC)CC)n2)[C@]2(C)[C@H](C)CC[C@]3(CCC(=O)[C@H]32)[C@@H](C)[C@@H]1O
zone of inhibition at 160 µg/mL (Escherichia coli [1]): 10.1 mm | zone of inhibition at 320 µg/mL (Bacillus subtilis [2]): 15.7 mm | zone of inhibition at 320 µg/mL (Escherichia coli [5]): 12 mm | MIC (Bacillus subtilis [7]): 4 µg/mL (≈ 6.5 µM) | zone of inhibition at 160 µg/mL (Staphylococcus aureus [8]): 19.9 mm | zone of inhibition at 160 µg/mL (Staphylococcus aureus [9]): 23.6 mm | zone of inhibition at 320 µg/mL (Staphylococcus aureus [10]): 22.3 mm | MIC (Staphylococcus aureus [12]): 0.25 µg/mL (≈ 0.406 µM) | MIC (Staphylococcus aureus [13]): 0.125 µg/mL (≈ 0.203 µM) | MIC (Escherichia coli [14]): 8 µg/mL (≈ 13 µM) | MIC (Staphylococcus aureus [15]): 0.5 µg/mL (≈ 0.812 µM) | zone of inhibition at 160 µg/mL (Staphylococcus aureus [16]): 16.4 mm | zone of inhibition at 160 µg/mL (Bacillus subtilis [17]): 13.4 mm | zone of inhibition at 320 µg/mL (Staphylococcus aureus [18]): 34.2 mm | zone of inhibition at 320 µg/mL (Staphylococcus aureus [21]): 25.8 mm

C=C[C@]1(C)C[C@@H](OC(=O)CSc2nc(N)cc(NC(=O)CN3CCCC3)n2)[C@]2(C)[C@H](C)CC[C@]3(CCC(=O)[C@H]32)[C@@H](C)[C@@H]1O
zone of inhibition at 160 µg/mL (Escherichia coli [1]): 10.2 mm | zone of inhibition at 320 µg/mL (Bacillus subtilis [2]): 20 mm | zone of inhibition at 320 µg/mL (Escherichia coli [5]): 13.4 mm | MIC (Bacillus subtilis [7]): 2 µg/mL (≈ 3.26 µM) | zone of inhibition at 160 µg/mL (Staphylococcus aureus [8]): 18.3 mm | zone of inhibition at 160 µg/mL (Staphylococcus aureus [9]): 22.2 mm | zone of inhibition at 320 µg/mL (Staphylococcus aureus [10]): 26.5 mm | MIC (Staphylococcus aureus [12]): 0.5 µg/mL (≈ 0.815 µM) | MIC (Staphylococcus aureus [13]): 0.125 µg/mL (≈ 0.204 µM) | MIC (Escherichia coli [14]): 4 µg/mL (≈ 6.52 µM) | MIC (Staphylococcus aureus [15]): 0.5 µg/mL (≈ 0.815 µM) | zone of inhibition at 160 µg/mL (Staphylococcus aureus [16]): 19.2 mm | zone of inhibition at 160 µg/mL (Bacillus subtilis [17]): 14.9 mm | zone of inhibition at 320 µg/mL (Staphylococcus aureus [18]): 30.4 mm | zone of inhibition at 320 µg/mL (Staphylococcus aureus [21]): 24 mm

C=C[C@]1(C)C[C@@H](OC(=O)CSc2nc(N)cc(NC(=O)CN3CCOCC3)n2)[C@]2(C)[C@H](C)CC[C@]3(CCC(=O)[C@H]32)[C@@H](C)[C@@H]1O
zone of inhibition at 160 µg/mL (Escherichia coli [1]): 9.82 mm | zone of inhibition at 320 µg/mL (Bacillus subtilis [2]): 19.6 mm | zone of inhibition at 320 µg/mL (Escherichia coli [5]): 11.9 mm | MIC (Bacillus subtilis [7]): 2 µg/mL (≈ 3.18 µM) | zone of inhibition at 160 µg/mL (Staphylococcus aureus [8]): 17.9 mm | zone of inhibition at 160 µg/mL (Staphylococcus aureus [9]): 24.7 mm | zone of inhibition at 320 µg/mL (Staphylococcus aureus [10]): 28 mm | MIC (Staphylococcus aureus [12]): 1 µg/mL (≈ 1.59 µM) | MIC (Staphylococcus aureus [13]): 0.125 µg/mL (≈ 0.198 µM) | MIC (Escherichia coli [14]): 4 µg/mL (≈ 6.35 µM) | MIC (Staphylococcus aureus [15]): 0.25 µg/mL (≈ 0.397 µM) | zone of inhibition at 160 µg/mL (Staphylococcus aureus [16]): 20.2 mm | zone of inhibition at 160 µg/mL (Bacillus subtilis [17]): 14.2 mm | zone of inhibition at 320 µg/mL (Staphylococcus aureus [18]): 35.4 mm | zone of inhibition at 320 µg/mL (Staphylococcus aureus [21]): 26.8 mm

C=C[C@]1(C)C[C@@H](OC(=O)CSc2nc(N)cc(NC(=O)CN3CCC[C@@H](CO)C3)n2)[C@]2(C)[C@H](C)CC[C@]3(CCC(=O)[C@H]32)[C@@H](C)[C@@H]1O
zone of inhibition at 160 µg/mL (Escherichia coli [1]): 10.3 mm | zone of inhibition at 320 µg/mL (Bacillus subtilis [2]): 22.2 mm | zone of inhibition at 320 µg/mL (Escherichia coli [5]): 13.3 mm | MIC (Bacillus subtilis [7]): 1 µg/mL (≈ 1.52 µM) | zone of inhibition at 160 µg/mL (Staphylococcus aureus [8]): 25.8 mm | zone of inhibition at 160 µg/mL (Staphylococcus aureus [9]): 25.9 mm | zone of inhibition at 320 µg/mL (Staphylococcus aureus [10]): 34.4 mm | MIC (Staphylococcus aureus [12]): 0.125 µg/mL (≈ 0.19 µM) | MIC (Staphylococcus aureus [13]): 0.0625 µg/mL (≈ 0.095 µM) | MIC (Escherichia coli [14]): 4 µg/mL (≈ 6.08 µM) | MIC (Staphylococcus aureus [15]): 0.125 µg/mL (≈ 0.19 µM) | zone of inhibition at 160 µg/mL (Staphylococcus aureus [16]): 26.5 mm | zone of inhibition at 160 µg/mL (Bacillus subtilis [17]): 17.7 mm | zone of inhibition at 320 µg/mL (Staphylococcus aureus [18]): 38.1 mm | zone of inhibition at 320 µg/mL (Staphylococcus aureus [21]): 35.1 mm

C=C[C@]1(C)C[C@@H](OC(=O)CSc2nc(N)cc(NC(=O)CN3CCC(O)CC3)n2)[C@]2(C)[C@H](C)CC[C@]3(CCC(=O)[C@H]32)[C@@H](C)[C@@H]1O
zone of inhibition at 160 µg/mL (Escherichia coli [1]): 8.54 mm | zone of inhibition at 320 µg/mL (Bacillus subtilis [2]): 16.1 mm | zone of inhibition at 320 µg/mL (Escherichia coli [5]): 11.4 mm | MIC (Bacillus subtilis [7]): 2 µg/mL (≈ 3.11 µM) | zone of inhibition at 160 µg/mL (Staphylococcus aureus [8]): 23.5 mm | zone of inhibition at 160 µg/mL (Staphylococcus aureus [9]): 21.1 mm | zone of inhibition at 320 µg/mL (Staphylococcus aureus [10]): 30.5 mm | MIC (Staphylococcus aureus [12]): 0.25 µg/mL (≈ 0.388 µM) | MIC (Staphylococcus aureus [13]): 0.125 µg/mL (≈ 0.194 µM) | MIC (Escherichia coli [14]): 4 µg/mL (≈ 6.21 µM) | MIC (Staphylococcus aureus [15]): 0.25 µg/mL (≈ 0.388 µM) | zone of inhibition at 160 µg/mL (Staphylococcus aureus [16]): 21 mm | zone of inhibition at 160 µg/mL (Bacillus subtilis [17]): 13.6 mm | zone of inhibition at 320 µg/mL (Staphylococcus aureus [18]): 30.6 mm | zone of inhibition at 320 µg/mL (Staphylococcus aureus [21]): 34.4 mm
